SMILES strings stand for the structures.

Consider 2 molecules from patent EP2511272B1, “Synthetic analogues of abscisic acid with anti-inflammatory and insulin release stimulation effects on human cells” (Universita' degli Studi di Genova, priority 2011, dated 2012).

Data set [1] has as its system human monocytes. Kind of data set: Inhibition of ABA-induced PGE2 production in monocytes (EIA). The settings on record: 6 h. Format: cell-based. Here is the method:
Monocytes, 25 x 10^6/Petri in complete RPMI, were incubated for 6 h with 100 nM ABA either alone, or in the presence of compound prepared according to example 1, at a concentration of 1 µM. At the end of the incubation, the substrate was centrifuged at 17,000xg for 5 minutes and the concentration of PGE2 was quantitated by using the kit: PGE2 monoclonal EIA kit (Cayman Chemical Co.), following the instructions suppled by the manufacturer.
(§1) The cells were lysed in 200 µl of deionized water in order to quantitate total proteins by the Bradford method (Bradford, M. M., 1976), after thre preliminary generation of a reference standard curve, obtained with different concentrations of bovine serum albumin. The spectrophotometric measurements were carried out at wavelength of 595 nm.
The experiment was carried out three times in sextuplicate.
The results were expressed as the average of the results from three independent experiments, as referred to control value. […] TABLE 7. Inhibition of PGE2 production, in human monocytes stimulated with ABA, by compound prepared according to example 1

Data set [2] addresses T1, ABA receptor (Homo sapiens, UniProt Q9NS86).
T1 construct: Human granulocytes (7 x 10^6 per point), after ON incubation in complete DMEM/F12, were incubated in triplicate; endogenous in cells; host or cells: human granulocytes (intact cells)
T1 sequence (Q9NS86 1-450): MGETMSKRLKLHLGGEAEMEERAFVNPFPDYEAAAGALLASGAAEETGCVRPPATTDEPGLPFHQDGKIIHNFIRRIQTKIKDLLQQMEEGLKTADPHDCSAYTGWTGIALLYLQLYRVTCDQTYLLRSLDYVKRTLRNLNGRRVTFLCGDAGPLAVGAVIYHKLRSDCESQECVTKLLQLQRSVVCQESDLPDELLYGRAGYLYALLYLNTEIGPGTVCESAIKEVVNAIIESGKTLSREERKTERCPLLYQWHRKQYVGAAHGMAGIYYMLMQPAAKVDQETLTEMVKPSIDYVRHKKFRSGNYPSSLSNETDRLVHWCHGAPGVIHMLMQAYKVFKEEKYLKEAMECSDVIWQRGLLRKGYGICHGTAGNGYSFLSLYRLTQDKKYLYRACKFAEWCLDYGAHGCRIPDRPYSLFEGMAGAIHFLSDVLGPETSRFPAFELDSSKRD
The note with it: value used in Cheng-Prusoff equation (Yamazaki e al., 2003); cited from earlier work.

Data set [3] has as its system INS-1 cells. Kind of data set: Insulin release (secretion index) by INS-1 cells, scr or LANCL-2 silenced. The data set is classed as cell-based, rat. The settings on record: 30 minutes. Here is the method: Insulinoma cells of INS-1 rat were transfected with LANCL-2 silencing RNAs LANCL-2 (siRNAL2) or with nonsense RNA (scr) and were incubated in 5 mM glucose (LG) oppure 25 mM glucose (HG), in the absence or in the presence of 100 nM ABA or of compound according to example 1 (100 nM). Insulin release is expressed as the secretion index (SI) relative to insulin release in LG. As regards the experimental procedure, with the exception of use of compound according to example 1, reference can be made to the following paper, in which the properties which are the subject-matter of the present example were investigated for only ABA. Sturla L, Fresia C, Guida L, Grozio A, Vigliarolo T, Mannino E, Millo E, Bagnasco L, Bruzzone S, De Flora A, Zocchi E. Binding of abscisic acid to human LANCL2. Biochem Biophys Res Commun. 2011 Nov 18;415(2):390-5. TABLE 12. Effect of ABA and of compound from example 1 on insulin release (SI) by […] at 30 minutes.

Data set [4] deals with human granulocytes. Kind of data set: Inhibition of ABA-induced PGE2 production in granulocytes (EIA). The data set is classed as cell-based. The settings on record: 6 h. The procedure: Granulocytes, in a number of 1x10^7 per point in RPMI supplemented with 10 % of foetal calf serum (FCS), penicillin (50 units/ml) and streptomycin (50 µg/ml) (complete RPMI), were incubated for 6 h with […] either alone or in the presence compound prepared according to example 1 at a concentration of 100 nM or of 1 µM. At the end of the incubation, the substrate was centrifuged at 17,000xg for 5 minutes and the concentration of PGE2 was quantitated by using the kit: PGE2 monoclonal EIA kit (Cayman Chemical Co.), following the instructions suppled by the manufacturer.
as §1
The experiment was carried out three times in triplicate TABLE 6). TABLE 6. Inhibition of PGE2 production, in human granulocytes stimulated with ABA, by compound prepared according to example 1

In data set [5] the test system is granulocytes. Kind of data set: Inhibition of ABA-induced chemotaxis (granulocyte migration, ChemoTx). The data set is classed as cell-based, human.
Data set [6] has as its target T1, ABA receptor. Kind of data set: Competition binding with [^3H]-ABA on human granulocytes. Here is the method: Human granulocytes (7 x 10^6 per point), after ON incubation in complete DMEM/F12, were incubated in triplicate at 25 °C for 60 min in 100 µl of HBSS spiked with glucose 10 mM in the presence either of an excess of unlabeled ABA (1 mM) (in order to determine the non-specific binding rate) or of increasing concentrations of compound prepared according to example 1 (from 0,01 nM up to 100 µM). To each compound, 10 nM of [^3H]-ABA (GE Healthcare) with specific activity of 98,000 cpm/pmole were added. At the end of incubation, the cells were centrifuged for 30 sec at […], the supernatant was removed and discarded, and the pellet was washed once wih an excess of HBSS in ice, and centrifuged for 30 sec at 17,000xg. The pellet was resuspended in 200 µl of de-ionized water and radioactivity of cells was determined after addition of scintillation cocktail in a β counter.
Specific binding was computed as the difference between the total binding of [^3H]-ABA in the cells and the binding of [^3H]-ABA in the presence of an excess of unlabeled ABA (1 mM) (non-specific binding).
The experiment was carried out five times in triplicate.

Data set [7] deals with human granulocytes. Kind of data set: Cytotoxicity, CellTiter 96 AQueous One Solution assay. Format: cell-based. The settings on record: 24 hrs.
The mark [8] stands for this setting: LANCL2 siRNA, HG (25 mM glucose), substance 100 nM.
Where [9] appears, read: LANCL2 siRNA, LG (5 mM glucose), substance 100 nM.
Setting [10] is: SCR, HG (25 mM glucose), substance 100 nM.
Where [11] appears, read: SCR, LG (5 mM glucose), substance 100 nM.

For orientation: Kd means a measure of binding affinity in units of concentration. Turning to `CC1=CC(=O)CC(C)(C)C1(O)/C=C/C(C)=C\C(=O)O` (racemic) [ABA, (2Z,4E)-5-(1-hydroxy-2,6,6-trimethyl-4-oxo-2-cyclohexen-1-yl)-3-methyl-2,4-pentadienoic acid, reference compound], the “Relative amount of PGE2 as referred to control ± SD” value in data set [1] (ABA 100 nM alone) is recorded as 2,2±0,2. For the same molecule, the dissociation constant Kd in data set [2] was 11 nM. In addition, the “insulin release, secretion index (SI) relative to LG” value in data set [3] (setting [8]) turned out to be 1.7; in data set [3] (setting [9]) it was 1; in data set [3] (setting [10]), 6.4; in data set [3] (setting [11]), 1.7.
A word on the inhibition: it is the percentage by which the read-out fell short of the control. A word on the Ki: it is the equilibrium dissociation constant of an inhibitor or competing ligand from its target. The IC50 is the midpoint of a concentration-inhibition curve. On to `CC(=C/C(=O)O)/C=C/C1(O)C(C)(C)CC(=O)C2OC21C` (stereo not drawn) [Example 1, 2'α,3'α-dihydro-2'α,3'α-epoxyabscisic acid], for which, in data set [1] (ABA 100 nM + compound 1 µM), the “Relative amount of PGE2 as referred to control ± SD” value was 1,0±0,1. For the same molecule, the inhibition at 1 µM came to 100% in data set [1] (Homo sapiens, Monocyte, ABA 100 nM + compound 1 µM) and 100% in data set [4] (ABA 100 nM + compound 1 µM). The inhibition at 0.1 µM in data set [4] (ABA 100 nM + compound 100 nM) is 85%. Also, the “CI±SD (chemotactic index)” value in data set [5] (ABA 1 µM + compound 10 nM) turned out to be 1.26±0.07. Moreover, the inhibition at 0.01 µM in data set [5] (Homo sapiens, migration towards ABA 1 µM, compound 10 nM) came out at 57%. Besides, in data set [6] (Cheng-Prusoff, [ABA] =10 nM, KD ABA = 11 nM, 95% confidence intervals 0.25 nM to 0.83 nM, read-out: inhibition constant Ki), the Ki came to 0.46 nM. In addition, in data set [6] (displaces 50 % of radioligand specific binding, 95 % confidence intervals 0.48 nM to 1.58 nM), the IC50 turned out to be 0.87 nM. The “insulin release, secretion index (SI) relative to LG” value in data set [3] (setting [8]) was 3; in data set [3] (LANCL2 siRNA, HG, ABA 100 nM + compound 100 nM together), 8; in data set [3] (setting [9]), 2; in data set [3] (LANCL2 siRNA, LG, ABA 100 nM + compound 100 nM together) it was 5; in data set [3] (setting [10]) it was 6; in data set [3] (SCR, HG, ABA 100 nM + compound 100 nM together), 12. The “insulin release, secretion index (SI) relative to LG” value in data set [3] (setting [11]) is listed as 2.5; in data set [3] (SCR, LG, ABA 100 nM + compound 100 nM together), 8.5. For the same molecule, the number of cells in data set [7] (1 nM) is 151138; in data set [7] (10 nM), 191138; in data set [7] (1 µM), 132555; in data set [7] (100 µM), 175388. The vitality % is listed as 89% in data set [7] (1 nM), 100% in data set [7] (10 nM), 83% in data set [7] (1 µM) and 96% in data set [7] (100 µM).
